Literature values, collected in patent publication US10752566B2, “Solvent compositions for use as replacements for slow evaporating solvents” (TBF ENVIRONMENTAL TECHNOLOGY INC., priority 2015, dated 2020).

Conditions: PCBTF

## FC(F)(F)c1ccc(Cl)cc1 [PCBTF, para-Chlorobenzotrifluoride]
  specific gravity: 1.34
